Results as given in patent US9493423B2, “Compounds capable of inhibiting voltage gated calcium ion channel, and pharmaceutical compositions comprising the same” (KOREA INSTITUTE OF SCIENCE AND TECHNOLOGY, priority 2015, dated 2016).

Tests used:
Assay type in all cases: cell-based
[1] = target: T1, α1G T-type calcium ion channel (Homo sapiens, UniProt O43497); assay: Antagonistic activity against T-type calcium ion channel, α1G (FDSS6000 screening / whole cell patch clamp in HEK293 cells); settings: HEK293 cells expressing α1G
T1 construct: host or cells: HEK293 stably expressing α1G and Kir2.1, selected with G-418
Method: The novel compounds, represented by Chemical Formula 1, of the present invention were assayed for antagonistic activity against T-type calcium ion channels as follows.
After being synthesized, the compounds were primarily screened for inhibitory activity against T-type channels using a high-throughput screening device FDSS6000, and selection was made of the synthetic compounds that blocked T-type channels at an inhibitory rate of 40% or higher. In a secondary screening process, the selected compounds were examined for the effective inhibitory concentration IC50 by measuring Ca^2+ potentials in human HEK293 cells.
Using Titertek Multidrop Plate Dispenser, HEK293 cell line cells that stably expressed alG T-type calcium ion channel and Kir2.1 (α1G cell line: KCTC 10519BP, Korean Human Gene Bank of the Korea Research Institute of Bioscience and Biotechnology) were seeded at a density of 4×10^4 cells/well into 96-well plates that were treated with poly-L-lysine (0.05 mg/ml) 12˜24 hrs before activity screening. On the day of test, the cells adherent to the 96-well plates were washed three times with a HEPES buffer (150 mM NaCl, 5 mM KCl, 1 mM MgCl2, 2 mM CaCl2, 10 mM HEPES, 10 mM glucose, pH 7.4) using a 96-well plate washer (Bio Tek), and then stained with a fluorescent dye by treatment with a HEPES containing 5 μM fluo-3/AM and 0.001% Pluronic F-127 for 1 hr at room temperature. Again, the cells were washed twice with a HEPES buffer. Ten minutes before reading on FDSS6000, the cells were washed once with a HEPES buffer containing 10 mM CaCl2, and the final volume per well was adjusted to 81 μL. Separately from the 96-well plates in which cells were contained, two 96-well plates were prepared so as to contain KCl (final concentration 75 mM), which activates T-type calcium ion channels, and blocker drugs therein. Since most cell-based HTS devices, although provided with a liquid application system necessary for drug infusion, have no liquid absorption systems, blocker drugs to be searched for and KCl were individually prepared into a 5-fold higher concentration in 27 μL of 10 mM CaCl2 HEPES. The concentration was 1/5 diluted into a final volume of 135 μL in each well before measurement. For the FDSS6000 measurements, cells were pre-incubated with drugs for 75 seconds after the 20-sec baseline recordings, and a change in intracellular calcium concentration induced by KCl was measured. The percent inhibition by a test compound was calculated as integrated values of 340/380 fluorescent ratio of untreated and drug-treated cells.
For accurate calcium-imaging, the light source of 4 xenon lamps in FDSS6000 were irradiated to make the cells exposed selectively to the excitation wavelength (340 nm and 380 nm) by computer-controlled filter wheel. Data was obtained at regular intervals of each 1.23 second. The emitter fluorescence light flew in through a long-pass filter was obtained as an average 340/380 ratio value for each well in the 96-wells by using CCD camera and digital fluorescence analyzer in FDSS6000. All image data and analyses were obtained by using FDSS6000-exclusive program provide from Hamamatsu Photonics.
Dulbecco's modified Eagle's medium (DMEM) supplemented with 10% fetal bovine serum (FBS) and 1% penicillin/streptomycin (v/v) was employed. The cells were cultured at 36.5° C. in a humidified condition of 95% air/5% CO2 in an incubator. The medium was refreshed every 3 or 4 days while the cells were sub-cultured every week, with the growth of only α1G T-type calcium ion channel-expressing cells in the presence of G-418 (0.5 mg/mL). The recording to the cells used in the T-type calcium channel activity analysis was conducted 2-7 days after the cells were culturing on a cover slip coated with poly-L-lysine (0.5 mg/mL) when conducting every sub-culture. For analysis at a single cell level, the T-type calcium channel current was measured by an electrophysiological whole cell patch clamp method using EPC-9 amplifier (HEKA, German). […]

[2] = system: LNCap (Human Prostate Carcinoma); assay: SRB (sulforhodamine B) assay of cancer cell growth, LNCap; parameters: dose or concentration left out as unconfirmed; settings: 48 hrs incubation
Method: (§1) For this assay, the cells at passages were separated from the surfaces of well plates using a trypsin-EDTA solution, and seeded at a density of 5×10^3 cells/well into 96-well plates. After 24 hrs of incubation in a CO2 incubator, the medium was removed. A 4-fold dilution of each of the compounds was added in an amount of 100 μL to each well, and the cells were incubated for 48 hrs. The cells were fixed by adding 100 μL of formalin to each well, washed five times with distilled water, dried at room temperature. The cells in each well were stained with 100 μL of 0.4% SRB for 30 min. at room temperature, washed five times with 1% acetic acid, and dried at room temperature. […] The optical density was read at 540 nm.
(§2) To calculate pharmaceutical efficacy of test compounds in cancer cells, GI50 was calculated according to the following Equation 1 or 2: […]
(§3) (wherein T0 is the number of cells before the addition of a test compound, and T2 is the number of cells after 48 hrs of incubation in the presence of a test compound)
(§4) The inhibition of cancer cell growth by the test compound (% inhibition) was determined by data regression using the Lotus program from the values calculated according to Equation 1, and the IC50 value was calculated from the % inhibition.

U87-MG (Human Glioma) = assay: SRB (sulforhodamine B) assay of cancer cell growth, U87-MG; parameters: dose or concentration left out as unconfirmed; settings: 48 hrs incubation
Method: as §1, §2, §3, §4

[3] = system: HT-1080 (Human Fibroblastoma); assay: SRB (sulforhodamine B) assay of cancer cell growth, HT-1080; parameters: dose or concentration left out as unconfirmed; settings: 48 hrs incubation
Method: as §1, §2, §3, §4

[4] = system: KYSE410 (Human Esophageal Carcinoma); assay: SRB (sulforhodamine B) assay of cancer cell growth, KYSE410; parameters: dose or concentration left out as unconfirmed; settings: 48 hrs incubation
Method: as §1, §2, §3, §4

T1 sequence (O43497 whole entry): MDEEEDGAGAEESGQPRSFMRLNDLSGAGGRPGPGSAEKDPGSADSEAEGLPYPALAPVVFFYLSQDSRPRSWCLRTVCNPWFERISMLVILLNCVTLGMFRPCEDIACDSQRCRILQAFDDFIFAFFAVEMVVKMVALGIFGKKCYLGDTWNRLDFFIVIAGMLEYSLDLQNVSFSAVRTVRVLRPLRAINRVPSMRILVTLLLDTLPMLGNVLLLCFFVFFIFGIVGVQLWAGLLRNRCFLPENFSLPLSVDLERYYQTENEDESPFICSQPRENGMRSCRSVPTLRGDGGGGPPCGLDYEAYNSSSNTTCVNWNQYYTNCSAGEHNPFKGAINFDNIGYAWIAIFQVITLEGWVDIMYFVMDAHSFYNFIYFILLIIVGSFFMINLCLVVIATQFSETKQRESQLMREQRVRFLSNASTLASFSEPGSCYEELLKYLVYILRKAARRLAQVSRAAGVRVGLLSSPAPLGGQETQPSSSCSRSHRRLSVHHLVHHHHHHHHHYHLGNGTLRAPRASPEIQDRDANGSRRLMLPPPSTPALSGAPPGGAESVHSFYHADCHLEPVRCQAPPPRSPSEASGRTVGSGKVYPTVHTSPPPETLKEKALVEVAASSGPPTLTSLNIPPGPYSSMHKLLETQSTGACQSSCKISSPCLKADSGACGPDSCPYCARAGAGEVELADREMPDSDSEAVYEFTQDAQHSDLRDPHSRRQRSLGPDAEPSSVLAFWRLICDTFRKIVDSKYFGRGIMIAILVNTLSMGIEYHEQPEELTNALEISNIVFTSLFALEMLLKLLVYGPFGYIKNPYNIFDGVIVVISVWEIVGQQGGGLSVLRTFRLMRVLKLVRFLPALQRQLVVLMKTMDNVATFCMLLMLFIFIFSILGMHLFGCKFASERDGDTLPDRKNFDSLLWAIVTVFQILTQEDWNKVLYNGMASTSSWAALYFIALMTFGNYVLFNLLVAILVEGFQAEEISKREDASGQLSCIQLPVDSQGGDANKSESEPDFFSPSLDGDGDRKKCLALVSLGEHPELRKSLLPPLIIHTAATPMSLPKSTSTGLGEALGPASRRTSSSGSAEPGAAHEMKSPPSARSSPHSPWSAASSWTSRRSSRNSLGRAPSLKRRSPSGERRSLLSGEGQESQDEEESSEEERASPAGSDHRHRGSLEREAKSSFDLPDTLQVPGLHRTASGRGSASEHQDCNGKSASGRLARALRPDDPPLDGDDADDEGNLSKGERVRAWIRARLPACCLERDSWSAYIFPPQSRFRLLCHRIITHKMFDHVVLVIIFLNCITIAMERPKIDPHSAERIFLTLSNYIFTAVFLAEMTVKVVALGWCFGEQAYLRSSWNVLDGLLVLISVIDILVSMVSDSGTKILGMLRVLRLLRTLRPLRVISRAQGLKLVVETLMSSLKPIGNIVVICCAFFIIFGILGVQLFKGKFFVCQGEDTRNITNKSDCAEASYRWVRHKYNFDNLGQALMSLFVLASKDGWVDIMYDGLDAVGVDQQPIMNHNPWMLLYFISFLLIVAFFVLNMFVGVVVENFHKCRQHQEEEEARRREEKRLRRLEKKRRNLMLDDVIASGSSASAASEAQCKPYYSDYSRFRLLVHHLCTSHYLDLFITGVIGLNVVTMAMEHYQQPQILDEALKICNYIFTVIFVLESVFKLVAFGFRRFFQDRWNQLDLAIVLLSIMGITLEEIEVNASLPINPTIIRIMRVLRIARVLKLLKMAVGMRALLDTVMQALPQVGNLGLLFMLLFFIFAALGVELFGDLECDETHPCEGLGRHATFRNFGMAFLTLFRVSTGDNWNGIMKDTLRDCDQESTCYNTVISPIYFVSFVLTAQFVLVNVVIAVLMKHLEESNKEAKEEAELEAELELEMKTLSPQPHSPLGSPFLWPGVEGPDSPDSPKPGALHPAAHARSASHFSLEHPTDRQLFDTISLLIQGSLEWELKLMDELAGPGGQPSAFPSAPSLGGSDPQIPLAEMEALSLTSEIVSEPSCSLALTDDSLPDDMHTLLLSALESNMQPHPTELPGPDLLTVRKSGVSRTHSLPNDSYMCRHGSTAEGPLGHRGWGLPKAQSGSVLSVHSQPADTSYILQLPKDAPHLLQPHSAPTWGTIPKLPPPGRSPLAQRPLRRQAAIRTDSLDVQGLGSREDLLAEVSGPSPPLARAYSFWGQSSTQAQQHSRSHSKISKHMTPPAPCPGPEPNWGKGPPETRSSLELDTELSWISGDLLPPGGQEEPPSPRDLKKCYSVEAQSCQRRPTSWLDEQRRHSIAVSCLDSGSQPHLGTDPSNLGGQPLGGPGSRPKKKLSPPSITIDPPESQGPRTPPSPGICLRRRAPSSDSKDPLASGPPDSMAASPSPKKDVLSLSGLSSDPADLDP

Row | Structure (SMILES) | inhibition at 10 µM [1] [%] | other results
1 | CC(C)Cc1cc(CNS(=O)(=O)c2ccccc2)nn1-c1ccccc1 [Compound 1, N-[(5-Isobutyl-1-phenyl-1H-pyrazol-3-yl)methyl]benzenesulfonamide] | 61.4 | –
2 | CC(C)Cc1cc(CNS(=O)(=O)c2cccc(F)c2)nn1-c1ccccc1 [Compound 2, N-[(5-Isobutyl-1-phenyl-1H-pyrazol-3-yl)methyl]-3-fluorobenzenesulfonamide] | 64.1 | –
3 | CC(C)Cc1cc(CNS(=O)(=O)c2cccc(Cl)c2)nn1-c1ccccc1 [Compound 3, N-[(5-Isobutyl-1-phenyl-1H-pyrazol-3-yl)methyl]-3-chlorobenzenesulfonamide] | 57.6 | –
4 | Cc1ccc(S(=O)(=O)NCc2cc(CC(C)C)n(-c3ccccc3)n2)cc1 [Compound 4, N-[(5-Isobutyl-1-phenyl-1H-pyrazol-3-yl)methyl]-4-methylbenzenesulfonamide] | 57.3 | –
5 | CC(C)Cc1cc(CNS(=O)(=O)Cc2ccccc2)nn1-c1ccccc1 [Compound 7, N-[(5-Isobutyl-1-phenyl-1H-pyrazol-3-yl)methyl]benzylsulfonamide] | 65.7 | –
6 | CC(C)Cc1cc(CNS(=O)(=O)c2cccc3cccnc23)nn1-c1ccccc1 [Compound 10, N-[(5-Isobutyl-1-phenyl-1H-pyrazol-3-yl)methyl]quinoline-8-sulfonamide] | 29.8 | –
7 | Cc1ccc(F)c(S(=O)(=O)NCc2cc(CC(C)C)n(-c3ccccc3)n2)c1 [Compound 11, N-[(5-Isobutyl-1-phenyl-1H-pyrazol-3-yl)methyl]-(2-fluoro-5-methyl)benzenesulfonamide] | – | Inhibition % for Cancer Cell LNCap [2]: 71.41%; Inhibition % for Cancer Cell U87-MG (U87-MG (Human Glioma)): 34.40%; Inhibition % for Cancer Cell HT1080 [3]: 57.56%; Inhibition % for Cancer Cell KYSE410 [4]: 47.30%; Inhibition % α1G (10 μM) [1]: 54.86%
8 | CC(C)Cc1cc(CNS(=O)(=O)c2c(F)cccc2F)nn1-c1ccccc1 [Compound 13, N-[(5-Isobutyl-1-phenyl-1H-pyrazol-3-yl)methyl]-2,6-difluorobenzenesulfonamide] | 45.1 | –
9 | Cc1c(CNS(=O)(=O)c2ccccc2)nn(-c2ccccc2)c1CC(C)C [Compound 15, N-[(5-Isobutyl-4-methyl-1-phenyl-1H-pyrazol-3-yl)methyl]benzenesulfonamide] | 70.5 | –
10 | Cc1c(CNS(=O)(=O)c2ccc3ccccc3c2)nn(-c2ccccc2)c1CC(C)C [Compound 16, N-[(5-Isobutyl-4-methyl-1-phenyl-1H-pyrazol-3-yl)methyl]naphthalene-2-sulfonamide] | 74.2 | –
11 | CC(C)Cc1cc(CNS(=O)(=O)c2ccccc2)nn1-c1ccc(F)cc1 [Compound 20, N-[(5-Isobutyl-1-(4-fluorophenyl)-1H-pyrazol-3-yl)methyl]benzenesulfonamide] | 45.6 | –
12 | CC(C)Cc1cc(CN2Cc3ccccc3S2(=O)=O)nn1-c1ccccc1 [Compound 28, 2-((5-Isobutyl-1-phenyl-1H-pyrazol-3-yl)methyl)-2,3-dihydrobenzo[d]isothiazole-1,1-dioxide] | 67.9 | –
13 | CC(C)Cc1cc(CN2Cc3ccccc3S2(=O)=O)nn1C(C)(C)C [Compound 29, 2-[{1-(tert-Butyl)-5-isobutyl-1H-pyrazol-3-yl}methyl]-2,3-dihydro[d]isothiazole 1,1-dioxide] | – | Inhibition % α1G (10 μM) [1]: 60.62%
14 | CC(C)Cc1cc(CN2Cc3ccccc3S2(=O)=O)nn1-c1ccc(F)cc1 [Compound 30, 2-[{1-(4-Fluorophenyl)-5-isobutyl-1H-pyrazol-3-yl}methyl]-2,3-dihydro[d]isothiazole 1,1-dioxide] | – | Inhibition % α1G (10 μM) [1]: 70.81%
15 | CC(C)(C)n1nc(CN2Cc3ccccc3S2(=O)=O)cc1-c1ccc(C2CCCCC2)cc1 [Compound 36, 2-[{1-(tert-Butyl)-5-(4-cyclohexylphenyl)-1H-pyrazol-3-yl}methyl]-2,3-dihydro[d]isothiazole 1,1-dioxide] | – | Inhibition % α1G (10 μM) [1]: 45.62%
